From ChEMBL document CHEMBL1139064, “Carbonic anhydrase activators: an activation study of the human mitochondrial isoforms VA and VB with amino acids and amines” (Bioorg Med Chem Lett, 2007)

What was measured:
[1] = target: Carbonic anhydrase 5B, mitochondrial (Homo sapiens) (UniProt Q9Y2D0); assay: Activation of human recombinant carbonic anhydrase 5B by stopped-flow CO2 hydrase method
[2] = target: Carbonic anhydrase 5A, mitochondrial (Homo sapiens) (UniProt P35218); assay: Activation of human recombinant carbonic anhydrase 5A by stopped-flow CO2 hydrase method
Carbonic anhydrase 5A, mitochondrial (Homo sapiens), sequence (P35218 whole entry): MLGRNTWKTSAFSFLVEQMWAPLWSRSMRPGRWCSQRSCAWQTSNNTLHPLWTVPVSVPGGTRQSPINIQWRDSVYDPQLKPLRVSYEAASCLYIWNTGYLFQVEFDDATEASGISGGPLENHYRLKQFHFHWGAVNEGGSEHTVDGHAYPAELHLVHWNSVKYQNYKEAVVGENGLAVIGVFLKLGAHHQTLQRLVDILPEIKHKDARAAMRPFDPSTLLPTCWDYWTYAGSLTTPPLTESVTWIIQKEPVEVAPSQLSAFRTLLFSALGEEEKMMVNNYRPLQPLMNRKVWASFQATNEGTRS

Carbonic anhydrase 5B, mitochondrial (Homo sapiens), sequence (Q9Y2D0 whole entry): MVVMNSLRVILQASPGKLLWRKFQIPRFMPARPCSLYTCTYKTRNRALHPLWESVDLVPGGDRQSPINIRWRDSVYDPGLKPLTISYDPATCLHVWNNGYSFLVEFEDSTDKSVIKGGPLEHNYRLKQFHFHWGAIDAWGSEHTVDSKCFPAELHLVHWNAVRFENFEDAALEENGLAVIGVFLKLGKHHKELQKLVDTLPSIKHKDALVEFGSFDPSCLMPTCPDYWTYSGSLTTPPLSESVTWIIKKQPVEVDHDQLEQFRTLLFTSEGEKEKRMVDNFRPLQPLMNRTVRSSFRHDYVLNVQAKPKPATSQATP

SMILES | KA [1] | KA [2]
NCCc1ccccn1 | 0.094 µM | 7.62 µM
N[C@@H](Cc1ccc(O)c(O)c1)C(=O)O | 0.063 µM | 0.036 µM
N[C@H](Cc1ccc(O)c(O)c1)C(=O)O | 3.71 µM | 4.59 µM
NCCN1CCNCC1 | 0.91 µM | 6.04 µM
NCCN1CCOCC1 | 1.15 µM | 0.089 µM
NCCc1c[nH]cn1 | 3.52 µM | 0.01 µM
N[C@H](Cc1c[nH]cn1)C(=O)O | 4.38 µM | 0.12 µM
Nc1ccc(C[C@H](N)C(=O)O)cc1 | 2.17 µM | 2.76 µM
NCCc1c[nH]c2ccc(O)cc12 | 0.11 µM | 6.33 µM
N[C@@H](Cc1ccc(O)cc1)C(=O)O | 0.044 µM | 2.45 µM
NCc1ccccn1 | 0.24 µM | 23.6 µM
NCCc1ccc(O)c(O)c1 | 7.85 µM | 0.13 µM
N[C@@H](Cc1c[nH]c2ccccc12)C(=O)O | 0.89 µM | 1.13 µM
N[C@@H](Cc1c[nH]cn1)C(=O)O | 0.97 µM | 1.34 µM
N[C@H](Cc1c[nH]c2ccccc12)C(=O)O | 1.35 µM | 1.24 µM
